Read-outs that look alike come from different tables or passages of the source.
Legend:
Type in all cases: biochemical
[1] = target: T1, 320 wild-type protein kinases (Homo sapiens, UniProt O00418); conditions: EEF2K, singlicate
T1 sequence (O00418 1-725): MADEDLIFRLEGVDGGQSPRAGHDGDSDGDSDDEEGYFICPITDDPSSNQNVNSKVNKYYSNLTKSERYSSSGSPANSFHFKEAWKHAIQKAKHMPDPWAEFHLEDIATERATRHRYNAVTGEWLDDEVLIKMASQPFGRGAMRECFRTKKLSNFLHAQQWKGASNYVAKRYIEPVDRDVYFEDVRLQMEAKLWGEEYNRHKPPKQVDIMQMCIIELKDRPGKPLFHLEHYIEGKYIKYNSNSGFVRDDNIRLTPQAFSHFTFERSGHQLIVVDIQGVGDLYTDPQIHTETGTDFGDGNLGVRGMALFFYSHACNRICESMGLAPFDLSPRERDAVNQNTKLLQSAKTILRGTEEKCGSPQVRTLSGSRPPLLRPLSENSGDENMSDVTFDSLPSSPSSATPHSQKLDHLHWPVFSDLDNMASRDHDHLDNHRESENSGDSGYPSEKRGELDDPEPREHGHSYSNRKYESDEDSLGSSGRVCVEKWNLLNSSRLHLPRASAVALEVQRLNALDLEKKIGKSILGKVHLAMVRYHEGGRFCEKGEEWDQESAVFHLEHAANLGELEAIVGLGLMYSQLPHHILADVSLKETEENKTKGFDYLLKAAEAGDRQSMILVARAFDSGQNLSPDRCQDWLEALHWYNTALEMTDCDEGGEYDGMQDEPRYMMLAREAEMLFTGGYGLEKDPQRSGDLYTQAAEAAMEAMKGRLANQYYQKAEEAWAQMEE
Source text: (§1) Table S4. Profiling of two compounds at two concentrations against 320 wild-type protein kinases; singlicate measurement; Residual activities (% of control).

[2] = target: T2, 320 wild-type protein kinases (Homo sapiens, UniProt O14733); conditions: singlicate
T2 sequence (O14733 1-419): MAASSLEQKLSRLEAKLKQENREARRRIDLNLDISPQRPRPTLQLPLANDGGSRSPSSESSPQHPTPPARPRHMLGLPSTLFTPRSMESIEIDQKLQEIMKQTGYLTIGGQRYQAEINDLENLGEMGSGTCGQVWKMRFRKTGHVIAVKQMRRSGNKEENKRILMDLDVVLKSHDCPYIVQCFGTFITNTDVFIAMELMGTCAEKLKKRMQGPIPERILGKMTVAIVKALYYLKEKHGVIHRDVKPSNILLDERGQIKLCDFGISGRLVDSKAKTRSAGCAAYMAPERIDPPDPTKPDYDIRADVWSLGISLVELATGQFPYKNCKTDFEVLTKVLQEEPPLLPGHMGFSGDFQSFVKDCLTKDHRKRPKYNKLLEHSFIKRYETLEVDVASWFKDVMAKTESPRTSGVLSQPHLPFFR
Source text: as §1

[3] = target: 320 wild-type protein kinases (Homo sapiens, UniProt P19784); conditions: singlicate
Sequence of 320 wild-type protein kinases (Homo sapiens, UniProt P19784) (P19784 whole entry): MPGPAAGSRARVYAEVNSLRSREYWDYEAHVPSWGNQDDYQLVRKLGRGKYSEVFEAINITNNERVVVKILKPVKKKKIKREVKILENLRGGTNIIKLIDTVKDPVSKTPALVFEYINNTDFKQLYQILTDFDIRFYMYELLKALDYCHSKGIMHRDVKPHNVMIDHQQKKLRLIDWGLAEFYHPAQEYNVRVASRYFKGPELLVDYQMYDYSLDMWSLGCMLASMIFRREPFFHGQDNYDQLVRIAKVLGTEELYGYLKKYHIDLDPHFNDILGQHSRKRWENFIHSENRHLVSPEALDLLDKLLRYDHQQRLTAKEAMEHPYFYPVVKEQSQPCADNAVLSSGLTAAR
Source text: as §1

[4] = target: T3, 320 wild-type protein kinases (Homo sapiens, UniProt P33981); conditions: kinase TTK, singlicate
T3 sequence (P33981 1-857): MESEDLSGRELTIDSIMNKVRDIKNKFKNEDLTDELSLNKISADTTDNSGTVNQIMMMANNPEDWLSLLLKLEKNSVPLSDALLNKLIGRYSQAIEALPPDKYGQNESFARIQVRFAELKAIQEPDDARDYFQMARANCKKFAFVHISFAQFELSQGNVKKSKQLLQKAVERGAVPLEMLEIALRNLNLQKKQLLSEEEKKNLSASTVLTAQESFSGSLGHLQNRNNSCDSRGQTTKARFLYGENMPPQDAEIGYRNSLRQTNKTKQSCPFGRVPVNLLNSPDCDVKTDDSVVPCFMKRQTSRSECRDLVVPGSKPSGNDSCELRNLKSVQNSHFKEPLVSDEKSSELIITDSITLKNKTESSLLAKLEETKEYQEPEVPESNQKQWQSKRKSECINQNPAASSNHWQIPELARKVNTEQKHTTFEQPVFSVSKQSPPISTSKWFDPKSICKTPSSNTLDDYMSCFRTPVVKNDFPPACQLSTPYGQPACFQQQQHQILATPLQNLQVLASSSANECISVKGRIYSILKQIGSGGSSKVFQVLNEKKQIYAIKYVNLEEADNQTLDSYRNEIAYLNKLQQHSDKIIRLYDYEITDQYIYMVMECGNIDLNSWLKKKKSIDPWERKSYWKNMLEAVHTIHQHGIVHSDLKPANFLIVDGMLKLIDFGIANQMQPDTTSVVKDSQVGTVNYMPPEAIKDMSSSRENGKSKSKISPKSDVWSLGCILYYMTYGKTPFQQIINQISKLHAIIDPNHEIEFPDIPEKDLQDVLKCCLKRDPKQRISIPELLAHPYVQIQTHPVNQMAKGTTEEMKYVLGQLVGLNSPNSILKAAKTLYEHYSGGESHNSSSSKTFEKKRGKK
Source text: as §1

[5] = target: 320 wild-type protein kinases (Homo sapiens, UniProt Q5TCY1); conditions: kinase TTBK1, singlicate
Sequence of 320 wild-type protein kinases (Homo sapiens, UniProt Q5TCY1) (Q5TCY1 whole entry): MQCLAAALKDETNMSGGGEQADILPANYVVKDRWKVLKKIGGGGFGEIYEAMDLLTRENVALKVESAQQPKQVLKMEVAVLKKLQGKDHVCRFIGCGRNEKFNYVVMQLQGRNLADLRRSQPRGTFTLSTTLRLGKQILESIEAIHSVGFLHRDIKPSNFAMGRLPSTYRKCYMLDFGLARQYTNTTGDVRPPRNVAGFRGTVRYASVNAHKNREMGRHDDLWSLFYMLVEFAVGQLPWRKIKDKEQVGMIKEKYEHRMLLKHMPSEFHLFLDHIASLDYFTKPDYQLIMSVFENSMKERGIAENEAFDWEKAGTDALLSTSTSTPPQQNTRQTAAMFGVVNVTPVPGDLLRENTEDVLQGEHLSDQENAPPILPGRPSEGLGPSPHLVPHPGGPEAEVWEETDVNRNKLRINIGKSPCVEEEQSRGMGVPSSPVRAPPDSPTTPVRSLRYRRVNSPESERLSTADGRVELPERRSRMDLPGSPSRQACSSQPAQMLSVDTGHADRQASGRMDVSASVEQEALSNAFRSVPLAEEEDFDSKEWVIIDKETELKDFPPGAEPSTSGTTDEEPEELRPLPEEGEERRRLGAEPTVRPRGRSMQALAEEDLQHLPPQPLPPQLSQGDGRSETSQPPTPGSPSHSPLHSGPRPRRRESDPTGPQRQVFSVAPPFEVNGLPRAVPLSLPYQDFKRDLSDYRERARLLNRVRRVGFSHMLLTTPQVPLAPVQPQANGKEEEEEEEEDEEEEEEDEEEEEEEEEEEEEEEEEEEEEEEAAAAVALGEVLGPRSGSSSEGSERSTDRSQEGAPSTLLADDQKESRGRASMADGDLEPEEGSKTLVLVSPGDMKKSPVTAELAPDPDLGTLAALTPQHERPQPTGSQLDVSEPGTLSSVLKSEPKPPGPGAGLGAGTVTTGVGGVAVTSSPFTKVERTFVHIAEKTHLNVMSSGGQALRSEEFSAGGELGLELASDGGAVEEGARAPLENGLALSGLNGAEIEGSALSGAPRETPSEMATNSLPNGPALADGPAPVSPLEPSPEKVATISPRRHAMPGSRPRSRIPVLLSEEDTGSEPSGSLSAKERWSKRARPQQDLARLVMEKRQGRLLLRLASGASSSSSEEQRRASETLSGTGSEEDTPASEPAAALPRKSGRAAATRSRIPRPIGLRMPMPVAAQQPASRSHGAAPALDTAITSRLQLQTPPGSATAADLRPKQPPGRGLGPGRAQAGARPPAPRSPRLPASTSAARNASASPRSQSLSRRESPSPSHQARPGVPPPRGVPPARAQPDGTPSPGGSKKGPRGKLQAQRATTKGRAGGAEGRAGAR
Source text: as §1

[6] = target: 320 wild-type protein kinases (Homo sapiens, UniProt Q9HCP0); conditions: singlicate
Sequence of 320 wild-type protein kinases (Homo sapiens, UniProt Q9HCP0) (Q9HCP0 whole entry): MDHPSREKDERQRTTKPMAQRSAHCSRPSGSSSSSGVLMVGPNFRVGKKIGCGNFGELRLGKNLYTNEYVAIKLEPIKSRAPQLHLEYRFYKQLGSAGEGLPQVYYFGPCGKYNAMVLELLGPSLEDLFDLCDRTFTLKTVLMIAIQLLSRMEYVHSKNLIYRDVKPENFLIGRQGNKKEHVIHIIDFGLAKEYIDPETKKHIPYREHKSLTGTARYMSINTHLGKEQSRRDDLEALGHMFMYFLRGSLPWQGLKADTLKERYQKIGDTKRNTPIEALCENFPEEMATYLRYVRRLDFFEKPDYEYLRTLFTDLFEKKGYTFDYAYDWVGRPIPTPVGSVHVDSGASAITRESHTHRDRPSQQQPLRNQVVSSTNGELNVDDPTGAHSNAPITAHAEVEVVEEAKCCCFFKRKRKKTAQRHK
Source text: as §1

Row | SMILES | Residual activity ([1]; 1.0E-06 M) | Residual activity ([1]; 1.0E-07 M) | Residual activity ([2]; MKK7, 1.0E-06 M) | Residual activity ([2]; MKK7, 1.0E-07 M) | Residual activity ([3]; CK2-alpha2, 1.0E-06 M) | Residual activity ([3]; CK2-alpha2, 1.0E-07 M) | Residual activity, TTK ([4]; assay conc. 1.0E-06 M) | Residual activity, TTK ([4]; assay conc. 1.0E-07 M) | Residual activity, TTBK1 ([5]; assay conc. 1.0E-06 M) | Residual activity, TTBK1 ([5]; assay conc. 1.0E-07 M) | Residual activity ([6]; CK1-gamma1, 1.0E-06 M) | Residual activity ([6]; CK1-gamma1, 1.0E-07 M)
1 | C#Cc1cc(Nc2ncnc3cc(I)ccc23)ccc1Cl [Compound 41] | 87 % of control | 94 % of control | 120 % of control | 86 % of control | 115 % of control | 115 % of control | 81 % of control | 100 % of control | 102 % of control | 113 % of control | 123 % of control | 125 % of control
2 | C#Cc1cc(Nc2ncnc3cc(OC)c(OC)cc23)ccc1Cl [Compound 45] | 83 % of control | 91 % of control | 98 % of control | 112 % of control | 111 % of control | 118 % of control | 83 % of control | 97 % of control | 101 % of control | 109 % of control | 100 % of control | 112 % of control
